Data reported in patent publication US8648066B2 (Exelixis, Inc., priority 2009, dated 2014).

These molecules were tested against mTOR/GbL/Raptor (mTORC1) (Homo sapiens, UniProt P42345) (assay: mTOR/GbL/Raptor (mTORC1) ELISA assay). Settings: phosphorylation of 4E-BP1; 0.2 nM mTORC1, 10 μM ATP; read-out: IC50 in this assay (mTORC1 ELISA).
Assay type: biochemical
Method in brief: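 ELISA read-out: phospho-4E-BP1 captured on Ni-chelate plates and detected with anti-phospho antibody plus HRP-anti-IgG luminescence. The kinase step ran 120 min at ambient temperature with 0.2 nM human mTORC1, 10 µM ATP, 50 nM His-4E-BP1, 10 mM MnCl2, pH 7.2 HEPES.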

IC50 [nM]	SMILES
≥ 2000	COc1ccc2c(N3CCOc4ccc(-c5ccc6[nH]cnc6c5)cc4C3)nc(CN(C)C)nc2c1 [Example 658, 1-{4-[7-(1H-benzimidazol-5-yl)-2,3-dihydro-1,4-benzoxazepin-4(5H)-yl]-7-(methyloxy)quinazolin-2-yl}-N,N-dimethylmethanamine]
250 to 1000	COc1ccc2c(N3CCOc4ccc(-c5ccc6[nH]c(C)nc6c5)cc4C3)nc(CN(C)C)nc2c1 [Example 659, N,N-dimethyl-1-{4-[7-(2-methyl-1H-benzimidazol-5-yl)-2,3-dihydro-1,4-benzxazepin-4(5H)-yl]-7-(methyloxy)quinazolin-2-yl}methanamine]
250 to 1000	COc1ccc2c(N3CCOc4ccc(-c5cnc6sc(N)nc6c5)cc4C3)nc(C)nc2c1 [Example 661, 6-{4-[2-methyl-7-(methyloxy)quinazolin-4-yl]-2,3,4,5-tetrahydro-1,4-benzoxazepin-7-yl}[1,3]thiazolo[5,4-b]pyridin-2-amine]
50 to 250	CCc1c(C)nc(CN(C)C)nc1N1CCOc2ccc(-c3cnc4sc(N)nc4c3)cc2C1 [Example 662, 6-(4-{2-[(dimethylamino)methyl]-5-ethyl-6-methylpyrimidin-4-yl}-2,3,4,5-tetrahydro-1,4-benzoxazepin-7-yl)[1,3]thiazolo[5,4-b]pyridin-2-amine]
50 to 250	Cc1nc(CN(C)C)nc(N2CCOc3ccc(-c4cnc5sc(N)nc5c4)cc3C2)c1CC1CC1 [Example 663, 6-(4-{5-(cyclopropylmethyl)-2-[(dimethylamino)methyl]-6-methylpyrimidin-4-yl}-2,3,4,5-tetrahydro-1,4-benzoxazepin-7-yl)[1,3]thiazolo[5,4-b]pyridin-2-amine]
250 to 1000	COCCc1c(C)nc(CN(C)C)nc1N1CCOc2ccc(-c3ccc4nc(C)[nH]c4c3)cc2C1 [Example 664, N,N-dimethyl-1-{4-methyl-6-[7-(2-methyl-1H-benzimidazol-6-yl)-2,3-dihydro-1,4-benzoxazepin-4(5H)-yl]-5-[2-(methyloxy)ethyl]pyrimidin-2-yl}methanamine]
10 to 50	Cc1nc(CN(C)C)nc(N2CCOc3ccc(-c4cnc5sc(N)nc5c4)cc3C2)c1CC(C)C [Example 665, 6-(4-{2-[(dimethylamino)methyl]-6-methyl-5-(2-methylpropyl)pyrimidin-4-yl}-2,3,4,5-tetrahydro-1,4-benzoxazepin-7-yl)[1,3]thiazolo[5,4-b]pyridin-2-amine]
≥ 2000	Cc1nc2cc(-c3ccc4c(c3)CN(c3nc(CN(C)C)nc(C)c3Br)CCO4)ccc2[nH]1 [Example 666, 1-{5-bromo-4-methyl-6-[7-(2-methyl-1H-benzimidazol-5-yl)-2,3-dihydro-1,4-benzoxazepin-4(5H)-yl]pyrimidin-2-yl}-N,N-dimethylmethanamine]
50 to 250	COCCc1c(C)nc(CN(C)C)nc1N1CCOc2ccc(-c3cnc4sc(N)nc4c3)cc2C1 [Example 667, 6-(4-{2-[(dimethylamino)methyl]-6-methyl-5-[2-(methyloxy)ethyl]pyrimidin-4-yl}-2,3,4,5-tetrahydro-1,4-benzoxazepin-7-yl)[1,3]thiazolo[5,4-b]pyridin-2-amine]
≤ 10	Cc1nc2cc(-c3ccc4c(c3)CN(c3nc(C(C)N)nc5c3CC(C)(C)CC5)CCO4)ccc2[nH]1 (centres unmarked) [Example 668, 1-{6,6-dimethyl-4-[7-(2-methyl-1H-benzimidazol-5-yl)-2,3-dihydro-1,4-benzoxazepin-4(5H)-yl]-5,6,7,8-tetrahydroquinazolin-2-yl}ethanamine]
≤ 10	Cc1nc2c(c(N3CCOc4ccc(-c5cnc6sc(N)nc6c5)cc4C3)n1)CC(C)(C)CC2 [Example 669, 6-[4-(2,6,6-trimethyl-5,6,7,8-tetrahydroquinazolin-4-yl)-2,3,4,5-tetrahydro-1,4-benzoxazepin-7-yl][1,3]thiazolo[5,4-b]pyridin-2-amine]
10 to 50	C=CCc1c(C)nc(CN(C)C)nc1N1CCOc2ccc(-c3cnc4sc(N)nc4c3)cc2C1 [Example 670, 6-(4-{2-[(dimethylamino)methyl]-6-methyl-5-prop-2-en-1-ylpyrimidin-4-yl}-2,3,4,5-tetrahyhdro-1,4-benzoxazepin-7-yl)[1,3]thiazolo[5,4-b]pyridin-2-amine]
250 to 1000	Cc1nc(CN(C)C)nc(N2CCOc3ccc(-c4cnc5sc(N)nc5c4)cc3C2)c1C [Example 671, 6-(4-{2-[(dimethylamino)methyl]-5,6-dimethylpyrimidin-4-yl}-2,3,4,5-tetrahydro-1,4-benzoxazepin-7-yl)[1,3]thiazolo[5,4-b]pyridin-2-amine]
≥ 2000	Cc1nc2ccc(-c3ccc4c(c3)CN(c3nc(CN(C)C)nc(C)c3C)CCO4)cc2[nH]1 [Example 672, 1-{4,5-dimethyl-6-[7-(2-methyl-1H-benzimidazol-6-yl)-2,3-dihydro-1,4-benzoxazepin-4(5H)-yl]pyrimidin-2-yl}-N,N-dimethylmethanamine]
250 to 1000	Cc1nc(CN(C)C)nc(N2CCOc3ccc(-c4cnc5sc(N)nc5c4)cc3C2)c1Br [Example 673, 6-(4-{5-bromo-2-[(dimethylamino)methyl]-6-methylpyrimidin-4-yl}-2,3,4,5-tetrahydro-1,4-benzoxazepin-7-yl)[1,3]thiazolo[5,4-b]pyridin-2-amine]
10 to 50	Cc1nc(CN(C)C)nc(N2CCOc3ccc(-c4cnc5sc(N)nc5c4)cc3C2)c1C(C)C [Example 674, 6-(4-{2-[(dimethylamino)methyl]-6-methyl-5-(1-methylethyl)pyrimidin-4-yl}-2,3,4,5-tetrahydro-1,4-benzoxazepin-7-yl)[1,3]thiazolo[5,4-b]pyridin-2-amine]
50 to 250	Cc1nc2cc(-c3ccc4c(c3)CN(c3nc(CN5CCCC5)nc(C)c3C(C)C)CCO4)ccc2[nH]1 [Example 675]
≤ 10	Cc1nc2cc(-c3ccc4c(c3)CN(c3nc(CF)nc5c3CC(C)(C)CC5)CCO4)ccc2[nH]1 [Example 676, 4-[2-(fluoromethyl)-6,6-dimethyl-5,6,7,8-tetrahydroquinazolin-4-yl]-7-(2-methyl-1H-benzimidazol-5-yl)-2,3,4,5-tetrahydro-1,4-benzoxazepine]
≥ 2000	Cc1nc2cc(-c3ccc4c(c3)CN(c3nc(CN(C)C)nc(C)c3Cl)CCO4)ccc2[nH]1 [Example 677, 1-{5-chloro-4-methyl-6-[7-(2-methyl-1H-benzimidazol-5-yl)-2,3-dihydro-1,4-benzoxazepin-4(5H)-yl]pyrimidin-2-yl}-N,N-dimethylmethanamine]
250 to 1000	Cc1nc(CN(C)C)nc(N2CCOc3ccc(-c4cnc5sc(N)nc5c4)cc3C2)c1Cl [Example 678, 6-(4-{5-chloro-2-[(dimethylamino)methyl]-6-methylpyrimidin-4-yl}-2,3,4,5-tetrahydro-1,4-benzoxazepin-7-yl)[1,3]thiazolo[5,4-b]pyridin-2-amine]
10 to 50	Cc1nc2cc(-c3ccc4c(c3)CN(c3nc(CNCCF)nc(C)c3C(C)C)CCO4)ccc2[nH]1 [Example 679, 2-fluoro-N-({4-methyl-6-[7-(2-methyl-1H-benzimidazol-5-yl)-2,3-dihydro-1,4-benzoxazepin-4(5H)-yl]-5-(1-methylethyl)pyrimidin-2-yl}methyl)ethanamine]
≤ 10	Cc1nc(CNCCF)nc(N2CCOc3ccc(-c4cnc5sc(N)nc5c4)cc3C2)c1C(C)C [Example 680, 6-{4-[2-{[(2-fluoroethyl)amino]methyl}-6-methyl-5-(1-methylethyl)pyrimidin-4-yl]-2,3,4,5-tetrahydro-1,4-benzoxazepin-7-yl}[1,3]thiazolo[5,4-b]pyridin-2-amine]
50 to 250	Cc1nc2cc(-c3ccc4c(c3)CN(c3nc(CN(C)C)nc(C)c3-c3ccccc3)CCO4)ccc2[nH]1 [Example 681, N,N-dimethyl-1-{4-methyl-6-[7-(2-methyl-1H-benzimidazol-5-yl)-2,3-dihydro-1,4-benzoxazepin-4(5H)-yl]-5-phenylpyrimidin-2-yl}methanamine]
10 to 50	Cc1nc(CN(C)C)nc(N2CCOc3ccc(-c4cnc5sc(N)nc5c4)cc3C2)c1-c1ccccc1 [Example 682, 6-(4-{2-[(dimethylamino)methyl]-6-methyl-5-phenylpyrimidin-4-yl}-2,3,4,5-tetrahydro-1,4-benzoxazepin-7-yl)[1,3]thiazolo[5,4-b]pyridin-2-amine]
10 to 50	Cc1nc2cc(-c3ccc4c(c3)CN(c3nc(NCCN(C)C)nc(C)c3Cc3ccc(F)cc3)CCO4)ccc2[nH]1 [Example 683, N′-{5-[(4-fluorophenyl)methyl]-4-methyl-6-[7-(2-methyl-1H-benzimidazol-5-yl)-2,3-dihydro-1,4-benzoxazepin-4(5H)-yl]pyrimidin-2-yl}-N,N-dimethylethane-1,2-diamine]
≤ 10	CC1(C)CCc2nc(CC#N)nc(N3CCOc4ccc(-c5cnc6sc(N)nc6c5)cc4C3)c2C1 [Example 684, {4-[7-(2-amino[1,3]thiazolo[5,4-b]pyridin-6-yl)-2,3-dihydro-1,4-benzoxazepin-4(5H)-yl]-6,6-dimethyl-5,6,7,8-tetrahydroquinazolin-2-yl}acetonitrile]
50 to 250	CCN(CC)Cc1nc(C)c(C(C)C)c(N2CCOc3ccc(-c4ccc5nc(C)[nH]c5c4)cc3C2)n1 [Example 685, N-ethyl-N-({4-methyl-6-[7-(2-methyl-1H-benzimidazol-5-yl)-2,3-dihydro-1,4-benzoxazepin-4(5H)-yl]-5-(1-methylethyl)pyrimidin-2-yl}methyl)ethanamine]
10 to 50	CC(=O)OCc1nc(C)c(C(C)C)c(N2CCOc3ccc(-c4ccc5nc(C)[nH]c5c4)cc3C2)n1 [Example 686, {4-methyl-6-[7-(2-methyl-1H-benzimidazol-5-yl)-2,3-dihydro-1,4-benzoxazepin-4(5H)-yl]-5-(1-methylethyl)pyrimidin-2-yl}methyl acetate]
≤ 10	Cc1nc2ccc(-c3ccc4c(c3)CN(c3nc(CO)nc(C)c3C(C)C)CCO4)cc2[nH]1 [Example 687, {4-methyl-6-[7-(2-methyl-1H-benzimidazol-5-yl)-2,3-dihydro-1,4-benzoxazepin-4(5H)-yl]-5-(1-methylethyl)pyrimidin-2-yl}methanol]
